Reference: patent publication US20170209346A1, “SHAPED CELLULOSE BODIES WITH PHYSIOLOGICALLY ACTIVE MINERAL SUBSTANCES DISTRIBUTED THEREIN” (smartpolymer GmbH, priority 2014, published 2017)
Read-outs that look alike come from different tables or passages of the source.

Tests used:
[1] = literature data, cited from earlier work
[2] = Solubility of mineral compounds in water; details: at 20° C.; chemically pure material used in Example 1
Description: The mineral compounds contain at least one mineral from the group consisting of sodium, potassium, calcium and magnesium and zinc. […] Water solubility is a prerequisite for the activity of the mineral compounds used, since corresponding anions and cations can thus be released.
This reported solubility is based on literature data. This list in no way restricts the actual multiplicity of possible mineral compounds having the required properties.

For `[O]=[Mg]` [Magnesium oxide], the solubility in water ([1]; temperature not given) is given as 12 µg/mL.

For Hydroxylapatite, the solubility in water ([1]; 20° C.) is listed as 6.57 µg/mL.

`[O]=[Mg]` [type 1 magnesium oxide, magnesium oxide] showed a solubility in water [2] of 12.5 µg/mL.

In the case of `[O]=[Zn]` [Zinc oxide], the solubility in water ([1]; 29° C.) is given as 1.6 µg/mL.
